According to patent US9388142B2, “Quinazolinone derivatives as PARP inhibitors” (MERCK PATENT GMBH, priority 2012, dated 2016):

Experiments:
Assay in all cases: biochemical
[1] = molecular target: GST-tagged Tankyrase-2 (873-1166 aa) (Homo sapiens, UniProt Q9H2K2)
Source text: (§1) aq (aqueous), h (hour), g (gram), L (liter), mg (milligram), MHz (Megahertz), min. (minute), mm (millimeter), mmol (millimole), mM (millimolar), m.p. (melting point), eq (equivalent), mL (milliliter), L (microliter), ACN (acetonitrile), AcOH (acetic acid), CDCl3 (deuterated chloroform), CD3OD (deuterated methanol), CH3CN (acetonitrile), c-hex (cyclohexane), DCC (dicyclohexyl carbodiimide), DCM (dichloromethane), DIC (diisopropyl carbodiimide), DIEA (diisopropylethyl-amine), DMF (dimethylformamide), DMSO (dimethylsulfoxide), DMSO-d6 (deuterated dimethylsulfoxide), EDC (1-(3-dimethyl-amino-propyl)-3-ethylcarbodiimide), ESI (Electro-spray ionization), EtOAc (ethyl acetate), Et2O (diethyl ether), EtOH (ethanol), HATU (dimethylamino-([1,2,3]triazolo[4,5-b]pyridin-3-yloxy)-methylene]-dimethylammonium hexafluorophosphate), HPLC (High Performance Liquid Chromatography), i-PrOH (2-propanol), K2CO3 (potassium carbonate), LC (Liquid Chromatography), MeOH (methanol), MgSO4 (magnesium sulfate), MS (mass spectrometry), MTBE (Methyl tert-butyl ether), NaHCO3 (sodium bicarbonate), NaBH4 (sodium borohydride), NMM (N-methyl morpholine), NMR (Nuclear Magnetic Resonance), PyBOP (benzotriazole-1-yl-oxy-trispyrrolidino-phosphonium hexafluorophosphate), RT (room temperature), Rt (retention time), SPE (solid phase extraction), TBTU (2-(1-H-benzotriazole-1-yl)-1,1,3,3-tetramethyluromium tetrafluoro borate), TEA (triethylamine), TFA (trifluoroacetic acid), THF (tetrahydrofuran), TLC (Thin Layer Chromatography), UV (Ultraviolet). Description of the In Vitro Assays Abbreviations: GST=Glutathione-S-transferase FRET=Fluorescence resonance energy transfer HTRF®=(homogenous time resolved fluorescence) HEPES=4-(2-hydroxyethyl)-1-piperazine ethanesulfonic acid buffer DTT=Dithiothreitol BSA=bovine serum albumin CHAPS=detergent; CHAPS=3[(3-cholamidopropyl)dimethylammonio]-1-propanesulfonate Streptavidin-XLent® is a high grade streptavidin-XL665 conjugate for which the coupling conditions have been optimized to yield a conjugate with enhanced performances for some assays, particularly those requiring high sensitivity.
(§2) The autoparsylation assay is run in two steps: the enzymatic reaction in which GST-tagged Tankyrase-1, resp Tankyrase-2 transferred biotinylated ADP-ribose to itself from biotinylated NAD as co-substrate and the detection reaction where a time resolved FRET between cryptate labelled anti-GST bound to the GST tag of the enzyme and Xlent® labelled-streptavidin bound the biotin-parsylation residue is analysed. The autoparsylation activity was detectable directly via the increase in HTRF signal.
(§3) The autoparsylation assay is performed as 384-well HTRF® (Cisbio, Codolet, France) assay format in Greiner low volume nb 384-well microtiter plates and is used for high throughput screen. […] The reaction is stopped by the addition of 1 μl 50 mM EDTA solution. […] The ratio of the emission signals is determined. The full value used is the inhibitor-free reaction. […] The inhibitory values (IC50) are determined using either the program Symyx Assay Explorer® or Condosseo® from GeneData.

[2] = molecular target: T1, GST-tagged Tankyrase-1 (1023-1327 aa) (Homo sapiens, UniProt O95271); settings: read-out: IC50 tankyrase 1 (enzyme assay)
T1 construct: GST-tagged Tankyrase-1 (1023-1327 aa)
T1 sequence (O95271 1023-1327): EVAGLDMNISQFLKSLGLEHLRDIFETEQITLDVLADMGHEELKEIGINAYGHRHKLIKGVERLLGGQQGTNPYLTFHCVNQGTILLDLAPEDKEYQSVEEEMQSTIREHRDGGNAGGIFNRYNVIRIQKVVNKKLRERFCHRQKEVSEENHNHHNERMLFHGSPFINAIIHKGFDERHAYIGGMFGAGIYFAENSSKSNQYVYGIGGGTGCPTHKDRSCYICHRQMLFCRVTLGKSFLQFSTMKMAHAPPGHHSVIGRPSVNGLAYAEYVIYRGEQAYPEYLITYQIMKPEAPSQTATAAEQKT
Source text: as §1, §2, §3

[3] = molecular target: GST-tagged Tnks-2 (873-1166 aa) (Homo sapiens, UniProt Q9H2K2)
GST-tagged Tnks-2 (873-1166 aa), sequence (Q9H2K2 873-1166): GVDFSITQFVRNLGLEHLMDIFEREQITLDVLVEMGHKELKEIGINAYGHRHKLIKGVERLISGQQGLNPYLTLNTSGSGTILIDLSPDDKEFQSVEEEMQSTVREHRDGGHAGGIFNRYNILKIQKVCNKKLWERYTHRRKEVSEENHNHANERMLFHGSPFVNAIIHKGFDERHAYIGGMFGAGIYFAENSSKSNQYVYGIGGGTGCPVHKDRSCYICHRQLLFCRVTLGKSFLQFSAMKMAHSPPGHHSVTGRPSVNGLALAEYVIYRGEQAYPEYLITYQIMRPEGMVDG
Description: Description of the TNKS1 and TNKS2 ELISA Assay
Then the activity assay with biotinylated NAD is performed in the absence/presence of the compounds. During the enzymatic reaction GST tagged TNKS transfers biotinylated ADP-ribose to itself from biotinylated NAD as co-substrate. For the detection streptavidin-HRP conjugate is added that binds to the biotinylated TNKS and is thereby captured to the plates. The amount of biotinylated resp. autoparsylated TNKS is detected with a luminescence substrate for HRP. The level of the luminescence signal correlates directly with the amount of autoparsylated TNKS and therefore with activity of TNKS.
The activity ELISA is performed in 384 well Glutathione coated microtiter plates (Express capture Glutathione coated plate, Biocat, Heidelberg, Germany). The plates are pre-equilibrated with PBS. […] The plates are washed 3 times with PBS-Tween-20. The wells are blocked by incubation at room temperature for 20 minutes with 50 μl blocking buffer (PBS, 0.05% Tween-20, 0.5% BSA). Afterwards the plates are washed 3 times with PBS-Tween-20. […] The reaction is stopped by 3 times washing with PBS-Tween-20. For the detection 50 μl of 20 ng/μl Streptavidin, HRP conjugate (MoBiTec, Gottingen, Germany) in PBS/0.05% Tween-20/0.01% BSA are added and the plates are incubated for 30 minutes at room temperature. After three times washing with PBS-Tween-20 50 μl of SuperSignal ELISA Femto Maximum sensitivity substrate solution (ThermoFisherScientific (Pierce), Bonn, Germany) are added. Following a 1 minute incubation at room temperature luminescence signals are measured with an Envision multimode reader (Perkin Elmer LAS Germany GmbH) at 700 nm. The full value used is the inhibitor-free reaction. […] The inhibitory values (IC50) are determined using either the program Symyx Assay Explorer® or Condosseo® from GeneData.

GST-tagged Tankyrase-2 (873-1166 aa), sequence (Q9H2K2 873-1166): as above

CCC(O)(CC)c1ccc(-c2nc3ccc(F)cc3c(=O)[nH]2)cc1 [Compound A14, 2-[4-(1-ethyl-1-hydroxy-propyl)phenyl]-6-fluoro-3H-quinazolin-4-one]
IC50 [1]: 300 to 3000 nM | IC50 [2]: < 300 nM | IC50 [3]: < 300 nM

O=c1[nH]c(-c2ccc(C3(O)CCCC3)cc2)nc2ccc(F)cc12 [Compound A16, 6-fluoro-2-[4-(1-hydroxycyclopentyl)phenyl]-3H-quinazolin-4-one]
IC50 [1]: 300 to 3000 nM | IC50 [2]: < 300 nM | IC50 [3]: < 300 nM

Cc1cc(F)cc2c(=O)[nH]c(-c3ccc(N4CCC(CO)CC4)cc3)nc12 [Compound A31, 6-fluoro-2-[4-(4-hydroxymethyl-piperidin-1-yl)-phenyl]-8-methyl-3H-quinazolin-4-one]
IC50 [1]: 300 to 3000 nM | IC50 [2]: 300 to 3000 nM | IC50 [3]: < 300 nM

Cc1cc(F)cc2c(=O)[nH]c(-c3ccc(N4CCC(O)CC4)cc3)nc12 [Compound A29, 6-fluoro-2-[4-(4-hydroxy-piperidin-1-yl)-phenyl]-8-methyl-3H-quinazolin-4-one]
IC50 [1]: 300 to 3000 nM | IC50 [2]: 300 to 3000 nM | IC50 [3]: < 300 nM

CC(C)(O)c1ccc(-c2nc3c(F)cc(F)c(F)c3c(=O)[nH]2)cc1 [Compound A26, 5,6,8-trifluoro-2-[4-(1-hydroxy-1-methyl-ethyl)-phenyl]-3H-quinazolin-4-one]
IC50 [1]: 300 to 3000 nM | IC50 [2]: < 300 nM | IC50 [3]: < 300 nM
